The results in this text go back to US11512053B2, “Arginine methyltransferase inhibitors and uses thereof” (priority 2013, dated 2022).

A word on the IC50: it is the point on the concentration scale where inhibition reaches its midpoint. As a reminder, the EC30 is the concentration at which the effect reaches the 30% level.

Structures can show the parent of a compound that is named as a salt. Where two headings read alike, the source gives them in different places.

For assay [1], the target named is full-length human PRMT8 isoform 1 (Homo sapiens, UniProt Q9NR22). As to the kind of experiment: PRMT8 Biochemical Assay (3H-SAM Flashplate, peptide substrate). To be noted: single experiment or average of multiple experiments; read-out: Biochemical IC50 PRMT8. The text has this:
General Materials. S-adenosylmethionine (SAM), S-adenosylhomocysteine (SAH), bicine, Tween20, dimethylsulfoxide (DMSO), bovine skin gelatin (BSG), isopropyl-β-D-thiogalactopyranoside (IPTG), and Tris(2-carboxyethyl)phosphine hydrochloride solution (TCEP) were purchased from Sigma-Aldrich at the highest level of purity possible. ^3H-SAM was purchase from American Radiolabeled Chemicals with a specific activity of 80 Ci/mmol. 384-well streptavidin Flashplates were purchased from PerkinElmer.
Substrates. Peptide representative of human histone H4 residues 31-45 was synthesized with an N-terminal linker-affinity tag motif and a C-terminal amide cap by 21st Century Biochemicals. The peptide was purified by high-performance liquid chromatography (HPLC) to greater than 95% purity and confirmed by liquid chromatography mass spectrometry (LC-MS). The sequence was Biot-Ahx-[…]-amide (SEQ ID NO.:8).
The resulting construct encodes an N-terminal GST tag and a thrombin cleavage sequence ([…] […] […] […] SPEF) (SEQ ID NO.:9) fused directly to Met 1 of PRMT8.
Protein Expression. E. coli (BL21(DE3) Gold, Stratagene) made competent by the CaCl2) method were transformed with the PRMT8 construct and ampicillin selection. Protein over-expression was accomplished by growing the PRMT8 expressing E. coli clone and inducing expression with 0.3 mM IPTG at 16° C. The culture was grown for 12 hours, harvested by centrifugation, and stored at −80° C. for purification.
Protein Purification. […] GST-tagged PRMT8 was eluted with 50 mM Tris, 2 mM glutathione, pH 7.8. Pooled fractions were cleaved by thrombin (10U) and dialysed in buffer A. GST was removed by reloading the cleaved protein sample onto glutathione sepharose column and PRMT8 was collected in the flow-through fractions. PRMT8 was purified further by ceramic hydroxyapatite chromatography. The column was washed with 50 mM phosphate buffer, 100 mM NaCl, 5% glycerol, 5 mM β-mercaptoethanol, pH 7.8 and PRMT8 was eluted by 100 mM phosphate in the same buffer. Protein was concentrated and buffer was exchanged to 50 mM Tris, 300 mM NaCl, 10% glycerol, 5 mM β-mercaptoethanol, pH 7.8 by ultrafiltration. The purity of recovered protein was 89%.
General Procedure for PRMT8 Enzyme Assays on Peptide Substrates. The assays were all performed in a buffer consisting of 20 mM Bicine (pH=7.6), 1 mM TCEP, 0.005% BSG, and 0.002% Tween 20, prepared on the day of use. Compounds in 100% DMSO (1 ul) were spotted into a polypropylene 384-well V-bottom plates (Greiner) using a Platemate Plus outfitted with a 384-channel head (Thermo Scientific). DMSO (1 ul) was added to Columns 11, 12, 23, 24, rows A-H for the maximum signal control and 1 ul of SAH, a known product and inhibitor of PRMT8, was added to columns 11, 12, 23, 24, rows I-P for the minimum signal control. A cocktail (40 ul) containing the PRMT8 enzyme was added by Multidrop Combi (Thermo-Fisher). The compounds were allowed to incubate with PRMT8 for 30 min at room temperature, then a cocktail (10 ul) containing ^3H-SAM and peptide was added to initiate the reaction (final volume=51 ul). The final concentrations of the components were as follows: PRMT8 was 1.5 nM, ^3H-SAM was 50 nM, non-radiolabeled SAM was 550 nM, peptide was 150 nM, SAH in the minimum signal control wells was 1 mM, and the DMSO concentration was 2%. The assays were stopped by the addition of non-radiolabeled SAM (10 ul) to a final concentration of 400 uM, which dilutes the ^3H-SAM to a level where its incorporation into the peptide substrate is no longer detectable. 50 ul of the reaction in the 384-well polypropylene plate was then transferred to a 384-well Flashplate and the biotinylated peptides were allowed to bind to the streptavidin surface for at least 1 hour before being washed once with 0.1% Tween20 in a Biotek ELx405 plate washer. […]

The test system of assay [2] is mono-methyl arginine in RKO cells. As to the kind of experiment: RKO Methylation Assay, In Cell Western (ICW) for detection of mono-methyl arginine and DNA content. It is filed as cell-based. To be noted: for EC30: Homo sapiens, RKO, 72 h. The text has this: RKO adherent cells were purchased from ATCC (American Type Culture Collection), Manassas, Va., USA. DMEM/Glutamax medium, penicillin-streptomycin, heat inactivated fetal bovine serum, 0.05% trypsin and D-PBS were purchased from Life Technologies, Grand Island, N.Y., USA. Odyssey blocking buffer, 800 CW goat anti-rabbit IgG (H+L) antibody, and Licor Odyssey infrared scanner were purchased from Licor Biosciences, Lincoln, Nebr., USA. Mono-methyl arginine antibody was purchased from Cell Signaling Technology, Danvers, Mass., USA. Methanol was purchased from VWR, Franklin, Mass., USA. 10% Tween 20 was purchased from KPL, Inc., Gaithersburg, Md., USA. DRAQ5 was purchased from Biostatus Limited, Leicestershire, UK.
RKO adherent cells were maintained in growth medium (DMEM/Glutamax medium supplemented with 10% v/v heat inactivated fetal bovine serum and 100 units/mL penicillin-streptomycin) and cultured at 37° C. under 5% CO2.
Cell treatment, In Cell Western (ICW) for detection of mono-methyl arginine and DNA content. […] Compound (100 nL) from a 96-well source plate was added directly to 384 well cell plate. Plates were incubated at 37° C., 5% CO2 for 72 hours. After three days of incubation, plates were brought to room temperature outside of the incubator for ten minutes and blotted on paper towels to remove cell media. 50 μL of ice cold 100% methanol was added directly to each well and incubated for 30 min at room temperature. After 30 min, plates were transferred to a Biotek EL406 plate washer and washed 2 times with 100 μL per well of wash buffer (1×PBS). Next 60 μL per well of Odyssey blocking buffer (Odyssey Buffer with 0.1% Tween 20 (v/v)) were added to each plate and incubated 1 hour at room temperature. Blocking buffer was removed and 20 μL per well of primary antibody was added (mono-methyl arginine diluted 1:200 in Odyssey buffer with 0.1% Tween 20 (v/v)) and plates were incubated overnight (16 hours) at 4° C. Plates were washed 5 times with 100 μL per well of wash buffer. […] The plates were washed 5 times with 100 μL per well wash buffer then 2 times with 100 μL per well of water. Plates were allowed to dry at room temperature then imaged on the Licor Odyssey machine which measures integrated intensity at 700 nm and 800 nm wavelengths. Both 700 and 800 channels were scanned.
Calculations: First, the ratio for each well was determined by:
Each plate included fourteen control wells of DMSO only treatment (minimum activation) as well as fourteen control wells for maximum activation treated with 20 μM of a reference compound. The average of the ratio values for each control type was calculated and used to determine the percent activation for each test well in the plate. Reference compound was serially diluted three-fold in DMSO for a total of nine test concentrations, beginning at 20 μM. Percent activation was determined and EC30 curves were generated using triplicate wells per concentration of compound.

Assay [3] has as its target full-length human PRMT6 (Flag- and His-tagged) (Homo sapiens, UniProt Q96LA8). Description: PRMT6 Biochemical Assay (3H-SAM Flashplate, peptide substrate). The source says:
General Materials. S-adenosylmethionine (SAM), S-adenosylhomocysteine (SAH), bicine, Tween20, dimethylsulfoxide (DMSO), bovine skin gelatin (BSG), sodium butyrate and Tris(2-carboxyethyl)phosphine hydrochloride solution (TCEP) were purchased from Sigma-Aldrich at the highest level of purity possible. ^3H-SAM was purchase from American Radiolabeled Chemicals with a specific activity of 80 Ci/mmol. 384-well streptavidin Flashplates were purchased from PerkinElmer.
Substrates. Peptide representative of human histone H4 residues 36-50 was synthesized with an N-terminal linker-affinity tag motif and a C-terminal amide cap by 21st Century Biochemicals. The peptide was purified by high-performance liquid chromatography (HPLC) to greater than 95% purity and confirmed by liquid chromatography mass spectrometry (LC-MS). The sequence was Biot-Ahx-[…]-amide and contained a monomethylated lysine at position 44 (SEQ ID NO.:5).
Molecular Biology: Full-length human PRMT6 (NM_018137.2) transcript clone was amplified from an HEK 293 cDNA library, incorporating a flanking 5′ sequence encoding a FLAG tag ([…]) (SEQ ID NO.:6) fused directly to Ser 2 of PRMT6 and a 3′ sequence encoding a hexa His sequence (HHHHHH) (SEQ ID NO.:17) fused directly to Asp 375. The amplified gene was subcloned into pFastBacMam (Viva Biotech).
Protein Expression. Recombinant baculovirus were generated according to Bac-to-Bac kit instructions (Life Technologies). […] Infections were carried out at 37° C. for 48 hours, harvested by centrifugation, and stored at −80° C. for purification.
Protein Purification. […] Column was washed with 20 mM imidazole in the same buffer and Flag-PRMT6-His was eluted with 150 mM imidazole. Pooled fractions were dialysed against buffer N^1-A and further purified by anti-flag M2 affinity chromatography. Flag-PRMT6-His was eluted with 200 ug/ml FLAG peptide in the same buffer. Pooled fractions were dialysed in 20 mM Tris, 150 mM NaCl, 10% glycerol and 5 mM β-mercaptoethanol, pH 7.8. The purity of recovered protein was 95%.
General Procedure for PRMT6 Enzyme Assays on Peptide Substrates. The assays were all performed in a buffer consisting of 20 mM Bicine (pH=7.6), 1 mM TCEP, 0.005% BSG, and 0.002% Tween 20, prepared on the day of use. Compounds in 100% DMSO (1 ul) were spotted into a polypropylene 384-well V-bottom plates (Greiner) using a Platemate Plus outfitted with a 384-channel head (Thermo Scientific). DMSO (1 ul) was added to Columns 11, 12, 23, 24, rows A-H for the maximum signal control and 1 ul of SAH, a known product and inhibitor of PRMT6, was added to columns 11, 12, 23, 24, rows I-P for the minimum signal control. A cocktail (40 ul) containing the PRMT6 enzyme was added by Multidrop Combi (Thermo-Fisher). The compounds were allowed to incubate with PRMT6 for 30 min at room temperature, then a cocktail (10 ul) containing SAM and peptide was added to initiate the reaction (final volume=51 ul). The final concentrations of the components were as follows: PRMT6 was 1 nM, ^3H-SAM was 200 nM, non-radiolabeled SAM was 250 nM, peptide was 75 nM, SAH in the minimum signal control wells was 1 mM, and the DMSO concentration was 2%. The assays were stopped by the addition of non-radiolabeled SAM (10 ul) to a final concentration of 400 uM, which dilutes the ^3H-SAM to a level where its incorporation into the peptide substrate is no longer detectable. 50 ul of the reaction in the 384-well polypropylene plate was then transferred to a 384-well Flashplate and the biotinylated peptides were allowed to bind to the streptavidin surface for at least 1 hour before being washed once with 0.1% Tween20 in a Biotek ELx405 plate washer. The plates were then read in a PerkinElmer TopCount plate reader to measure the quantity of ^3H-labeled peptide bound to the Flashplate surface, measured as disintegrations per minute (dpm) or alternatively, referred to as counts per minute (cpm). […]

full-length human PRMT6 (Flag- and His-tagged), sequence (Q96LA8 with tags, fused parts or gaps): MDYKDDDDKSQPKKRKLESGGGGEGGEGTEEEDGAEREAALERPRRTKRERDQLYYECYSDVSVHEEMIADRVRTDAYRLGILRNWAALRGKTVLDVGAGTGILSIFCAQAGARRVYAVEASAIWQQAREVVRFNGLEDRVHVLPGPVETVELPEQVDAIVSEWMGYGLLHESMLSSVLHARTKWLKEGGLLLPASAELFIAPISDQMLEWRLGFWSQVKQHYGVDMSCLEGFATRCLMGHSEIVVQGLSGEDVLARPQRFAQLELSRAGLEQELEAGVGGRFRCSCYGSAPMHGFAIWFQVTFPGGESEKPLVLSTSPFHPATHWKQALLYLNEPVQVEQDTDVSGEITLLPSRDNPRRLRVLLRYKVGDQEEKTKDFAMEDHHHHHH
full-length human PRMT8 isoform 1, sequence (Q9NR22 whole entry, canonical isoform): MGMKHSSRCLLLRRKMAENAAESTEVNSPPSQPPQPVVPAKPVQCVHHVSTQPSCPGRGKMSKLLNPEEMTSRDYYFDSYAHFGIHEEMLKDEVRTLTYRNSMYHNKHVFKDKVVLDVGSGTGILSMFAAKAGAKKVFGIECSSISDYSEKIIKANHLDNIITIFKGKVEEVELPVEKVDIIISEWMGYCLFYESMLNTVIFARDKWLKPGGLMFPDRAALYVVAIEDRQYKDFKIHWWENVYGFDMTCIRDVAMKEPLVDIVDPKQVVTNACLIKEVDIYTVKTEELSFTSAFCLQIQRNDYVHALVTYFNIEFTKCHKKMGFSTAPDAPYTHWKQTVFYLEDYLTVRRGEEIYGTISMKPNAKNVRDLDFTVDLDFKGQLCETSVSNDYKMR

Turning to `CN(CCN)Cc1c[nH]nc1C1CCC(N2CCOCC2)CC1` (stereo not shown) [Compound 43, N^1-methyl-N^1-((3-(4-morpholinocyclohexyl)-1H-pyrazol-4-yl)methyl)ethane-1,2-diamine], in assay [1], the IC50 turned out to be 11.6 nM. Also, the EC30 in assay [2] (RKO cells, 72 hours incubation, mono-methyl arginine signal normalised to DNA content, single experiment or average of multiple experiments, read-out: In Cell Western EC30) is 2600 nM. Further, in assay [2] (RKO cells, 72 hours compound incubation, mono-methyl arginine signal normalised to DNA content (DRAQ5), percent activation vs 20 μM reference compound), the “In Cell Western EC30” value is given as “A (“A” indicates an EC30 ≤ 3.00 μM)”.

Take `CCOCC1(COCC)CCC(c2n[nH]cc2CN(C)CCNC)CC1` [Compound 158, ([3-[4,4-bis(ethoxymethyl)cyclohexyl]-1H-pyrazol-4-yl]methyl)(methyl)[2-(methylamino)ethyl]amine hydrochloride salt]: the IC50 in assay [3] (Biochemical IC50 PRMT6) was under 100 nM; in assay [3] (Biochemical IC50 PRMT6, single experiment or average of multiple experiments), 91 nM. For the same compound, the EC30 in assay [2] (read-out: In Cell Western EC30, RKO cells, 72 hours compound incubation, mono-methyl arginine signal normalised to DNA content (DRAQ5), percent activation vs 20 μM reference compound) is under 3000 nM; in assay [2] (read-out: In Cell Western EC30, RKO cells, 72 hours incubation, mono-methyl arginine signal normalised to DNA content, single experiment or average of multiple experiments), 8 nM.
